# In article PMC4206221 (Science signaling, 2011):
# How the values were obtained:
# PLK3 = PLK3 (Homo sapiens, UniProt Q9H4B4); assay: kinase inhibition IC50; format: biochemical
# PLK1 = PLK1 (Homo sapiens, UniProt P53350); assay: kinase inhibition IC50; format: biochemical
# Sequence of PLK1 (P53350 2-603): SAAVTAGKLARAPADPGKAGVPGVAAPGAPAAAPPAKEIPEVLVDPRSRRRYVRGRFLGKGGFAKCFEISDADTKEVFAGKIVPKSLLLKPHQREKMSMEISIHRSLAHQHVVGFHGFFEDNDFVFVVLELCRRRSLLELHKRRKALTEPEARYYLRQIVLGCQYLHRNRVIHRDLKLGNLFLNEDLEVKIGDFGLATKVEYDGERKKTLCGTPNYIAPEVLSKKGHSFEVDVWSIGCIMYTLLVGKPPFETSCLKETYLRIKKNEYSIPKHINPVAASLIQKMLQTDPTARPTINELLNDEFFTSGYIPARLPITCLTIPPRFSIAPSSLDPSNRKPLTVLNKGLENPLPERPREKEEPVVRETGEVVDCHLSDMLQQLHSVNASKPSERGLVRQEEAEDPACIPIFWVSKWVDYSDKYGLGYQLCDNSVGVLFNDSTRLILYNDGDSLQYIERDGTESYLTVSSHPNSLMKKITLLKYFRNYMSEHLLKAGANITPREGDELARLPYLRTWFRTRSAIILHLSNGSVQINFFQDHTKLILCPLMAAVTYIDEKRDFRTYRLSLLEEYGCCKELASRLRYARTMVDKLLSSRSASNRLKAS
# Sequence of PLK3 (Q9H4B4 whole entry): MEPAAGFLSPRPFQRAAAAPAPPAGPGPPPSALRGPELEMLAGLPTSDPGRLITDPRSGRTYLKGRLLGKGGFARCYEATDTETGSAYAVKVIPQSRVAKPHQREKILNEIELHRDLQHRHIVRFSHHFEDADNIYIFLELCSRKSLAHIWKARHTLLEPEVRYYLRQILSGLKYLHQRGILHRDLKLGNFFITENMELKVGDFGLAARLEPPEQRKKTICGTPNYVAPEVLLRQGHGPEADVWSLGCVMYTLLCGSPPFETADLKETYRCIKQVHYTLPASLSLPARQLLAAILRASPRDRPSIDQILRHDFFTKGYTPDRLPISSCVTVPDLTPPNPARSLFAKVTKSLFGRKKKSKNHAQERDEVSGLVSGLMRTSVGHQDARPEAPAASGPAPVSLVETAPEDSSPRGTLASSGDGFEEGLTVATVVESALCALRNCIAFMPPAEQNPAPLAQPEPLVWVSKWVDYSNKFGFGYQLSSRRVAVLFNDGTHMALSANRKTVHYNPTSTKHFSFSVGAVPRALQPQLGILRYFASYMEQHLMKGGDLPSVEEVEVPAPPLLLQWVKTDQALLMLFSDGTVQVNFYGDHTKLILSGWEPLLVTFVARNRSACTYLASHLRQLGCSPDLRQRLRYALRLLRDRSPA
smiles,measurement,setting,value
CC[C@@H]1C(=O)N(C)c2cnc(Nc3ccc(C(=O)NC4CCC(N5C[C@@H](C)O[C@@H](C)C5)CC4)cc3OC)nc2N1C(C)C (some centres unmarked) [BI 4834],IC50,PLK3,198 nM
same,IC50,PLK1,7.6 nM
